According to the supplement of paper PMC6045584:
± gives the standard deviation of the averaged measurements.

Columns and labels:
ABIRATERONE = compound: C[C@]12CC[C@H](O)CC1=CC[C@@H]1[C@@H]2CC[C@]2(C)C(c3cccnc3)=CC[C@@H]12 [ABIRATERONE]; experiment: surviving fraction relative to DMSO-only wells; higher = less growth inhibition; details: exposure time: 5 days
How it was run: (§1)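 In 384-well plates, 250–500 log-phase tumour cells per well were given 24 hours before five days of continuous exposure to inhibitors at 0.5, 1, 5, 10, 50, 100, 500 and 1000 nM. Surviving fraction is luminescence from CellTiter-Glo, normalised to the median of wells containing DMSO alone. Reading took place after 10 minutes at room temperature.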

DASATINIB = compound: Cc1nc(Nc2ncc(C(=O)Nc3c(C)cccc3Cl)s2)cc(N2CCN(CCO)CC2)n1 [DASATINIB]; experiment: as above; details: exposure time: 5 days
How it was run: as §1

| Test System | surviving fraction (ABIRATERONE; 0.5 nM) | surviving fraction (ABIRATERONE; 1 nM) | surviving fraction (ABIRATERONE; 5 nM) | surviving fraction (ABIRATERONE; 10 nM) | surviving fraction (ABIRATERONE; 50 nM) | surviving fraction (ABIRATERONE; 100 nM) | surviving fraction (ABIRATERONE; 500 nM) | surviving fraction (ABIRATERONE; 1000 nM) | surviving fraction (DASATINIB; 0.5 nM) | surviving fraction (DASATINIB; 1 nM) | surviving fraction (DASATINIB; 5 nM) | surviving fraction (DASATINIB; 10 nM) | surviving fraction (DASATINIB; 50 nM) | surviving fraction (DASATINIB; 100 nM) | surviving fraction (DASATINIB; 500 nM) | surviving fraction (DASATINIB; 1000 nM) |
| --- | --- | --- | --- | --- | --- | --- | --- | --- | --- | --- | --- | --- | --- | --- | --- | --- |
| HCC1806 BREAST | 1.12 ± 0.11 | 1.08 ± 0.17 | 1.19 ± 0.024 | 1.08 ± 0.021 | 1.19 ± 0.051 | 1.2 ± 0.11 | 1.05 ± 0.085 | 0.953 ± 0.12 | 0.682 ± 0.085 | 0.639 ± 0.021 | 0.71 ± 0.059 | 0.639 ± 0.075 | 0.446 ± 0.017 | 0.219 ± 0.038 | 0.167 ± 0.015 | 0.149 ± 0.021 |
| MDAMB361 BREAST | 0.881 ± 0.035 | 0.872 ± 0.096 | 0.82 ± 0.045 | 0.825 ± 0.076 | 1.53 ± 0.14 | 0.91 ± 0.04 | 0.837 ± 0.072 | 0.719 ± 0.07 | 0.678 ± 0.12 | 0.733 ± 0.081 | 0.668 ± 0.087 | 0.711 ± 0.16 | 0.799 ± 0.058 | 0.781 ± 0.039 | 0.75 ± 0.077 | 0.821 ± 0.13 |
| HCT15 LARGE INTESTINE | 1.08 ± 0.027 | 1.12 ± 0.024 | 1.1 ± 0.054 | 1.1 ± 0.029 | 1.11 ± 0.026 | 1.1 ± 0.0051 | 1.11 ± 0.04 | 1.1 ± 0.036 | 0.827 ± 0.034 | 0.814 ± 0.04 | 0.789 ± 0.06 | 0.73 ± 0.094 | 0.702 ± 0.044 | 0.56 ± 0.034 | 0.363 ± 0.083 | 0.326 ± 0.046 |
| SCC003 HEADNECK | 1.15 ± 0.044 | 1.11 ± 0.14 | 1.09 ± 0.08 | 1.14 ± 0.065 | 1.27 ± 0.084 | 1.13 ± 0.088 | 1.19 ± 0.042 | 1.1 ± 0.034 | 0.877 ± 0.036 | 0.843 ± 0.068 | 0.899 ± 0.13 | 0.813 ± 0.076 | 0.827 ± 0.025 | 0.654 ± 0.046 | 0.263 ± 0.014 | 0.149 ± 0.023 |
| MHM BONE | 1.03 ± 0.038 | 1.005 ± 0.0032 | 1.03 ± 0.027 | 1.05 ± 0.02 | 1.07 ± 0.024 | 1.05 ± 0.015 | 1.03 ± 0.018 | 1.05 ± 0.034 | 0.966 ± 0.032 | 0.933 ± 0.058 | 0.846 ± 0.065 | 0.815 ± 0.049 | 0.686 ± 0.011 | 0.635 ± 0.0097 | 0.525 ± 0.0055 | 0.488 ± 0.018 |
